Results: PubChem BioAssay (NCI)
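Interpolation was linear, between the two tested concentrations surrounding the appropriate level; five concentrations were tested over 48 hours in 96-well plates. TGI denotes the concentration required for complete inhibition of growth.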

Tests used:
Assay in all cases: inhibition of tumour cell growth, NCI panel, 48 h
LOX IMVI melanoma = test system: LOX IMVI melanoma
KM12 colon = test system: KM12 colon
PC-3 prostate = test system: PC-3 prostate
TK-10 renal = test system: TK-10 renal
786-0 renal = test system: 786-0 renal
SF-268 CNS = test system: SF-268 CNS
SF-539 CNS = test system: SF-539 CNS
SK-MEL-28 melanoma = test system: SK-MEL-28 melanoma
MDA-MB-231 breast = test system: MDA-MB-231 breast
HCT-116 colon = test system: HCT-116 colon
ACHN renal = test system: ACHN renal
SNB-75 CNS = test system: SNB-75 CNS
A549 NSCLC = test system: A549 NSCLC
BT-549 breast = test system: BT-549 breast
T-47D breast = test system: T-47D breast
SR leukemia = test system: SR leukemia
U251 CNS = test system: U251 CNS
HOP-92 NSCLC = test system: HOP-92 NSCLC
HOP-62 NSCLC = test system: HOP-62 NSCLC
MDA-MB-435 = test system: MDA-MB-435
MDA-N = test system: MDA-N
SN12C renal = test system: SN12C renal
IGROV1 ovarian = test system: IGROV1 ovarian
NCI-H522 lung = test system: NCI-H522 lung
A498 renal = test system: A498 renal
RPMI-8226 leukemia = test system: RPMI-8226 leukemia
NCI-H23 lung = test system: NCI-H23 lung
NCI-H460 lung = test system: NCI-H460 lung
COLO 205 colon = test system: COLO 205 colon
NCI/ADR-RES ovarian = test system: NCI/ADR-RES ovarian
NCI-H226 lung = test system: NCI-H226 lung
SK-MEL-2 melanoma = test system: SK-MEL-2 melanoma
UACC-257 melanoma = test system: UACC-257 melanoma
OVCAR-4 ovarian = test system: OVCAR-4 ovarian
CCRF-CEM leukemia = test system: CCRF-CEM leukemia
SK-OV-3 ovarian = test system: SK-OV-3 ovarian
OVCAR-5 ovarian = test system: OVCAR-5 ovarian
SF-295 CNS = test system: SF-295 CNS
K-562 leukemia = test system: K-562 leukemia
HCC-2998 colon = test system: HCC-2998 colon
UO-31 renal = test system: UO-31 renal
M14 melanoma = test system: M14 melanoma
SW-620 colon = test system: SW-620 colon
MOLT-4 leukemia = test system: MOLT-4 leukemia
CAKI-1 renal = test system: CAKI-1 renal
SNB-19 CNS = test system: SNB-19 CNS
SK-MEL-5 melanoma = test system: SK-MEL-5 melanoma
OVCAR-3 ovarian = test system: OVCAR-3 ovarian
MCF7 breast = test system: MCF7 breast
RXF 393 renal = test system: RXF 393 renal
EKVX NSCLC = test system: EKVX NSCLC
HCT-15 colon = test system: HCT-15 colon
OVCAR-8 ovarian = test system: OVCAR-8 ovarian
MALME-3M melanoma = test system: MALME-3M melanoma
HT29 colon = test system: HT29 colon
DU-145 prostate = test system: DU-145 prostate
HS 578T breast = test system: HS 578T breast
HL-60(TB) leukemia = test system: HL-60(TB) leukemia
UACC-62 melanoma = test system: UACC-62 melanoma

## CCCCCc1c(CCCC)c(=O)[nH]c2nc(NC(=O)CCCC)ccc12
LOX IMVI melanoma
  TGI: > 100 µM
KM12 colon
  TGI: > 100 µM
PC-3 prostate
  TGI: > 100 µM
TK-10 renal
  TGI: > 100 µM
786-0 renal
  TGI: > 100 µM
SF-268 CNS
  TGI: > 100 µM
SF-539 CNS
  TGI: > 100 µM
SK-MEL-28 melanoma
  TGI: > 100 µM
MDA-MB-231 breast
  TGI: > 100 µM
HCT-116 colon
  TGI: > 100 µM
ACHN renal
  TGI: > 100 µM
SNB-75 CNS
  TGI: > 100 µM
A549 NSCLC
  TGI: > 100 µM
BT-549 breast
  TGI: > 100 µM
T-47D breast
  TGI: > 100 µM
SR leukemia
  TGI: > 100 µM
U251 CNS
  TGI: > 100 µM
HOP-92 NSCLC
  TGI: > 100 µM
HOP-62 NSCLC
  TGI: > 100 µM
MDA-MB-435
  TGI: > 100 µM
MDA-N
  TGI: > 100 µM
SN12C renal
  TGI: > 100 µM
IGROV1 ovarian
  TGI: > 100 µM
NCI-H522 lung
  TGI: > 100 µM
A498 renal
  TGI: > 100 µM
RPMI-8226 leukemia
  TGI: > 100 µM
NCI-H23 lung
  TGI: > 100 µM
NCI-H460 lung
  TGI: > 100 µM
COLO 205 colon
  TGI: > 100 µM
NCI/ADR-RES ovarian
  TGI: > 100 µM
NCI-H226 lung
  TGI: > 100 µM
SK-MEL-2 melanoma
  TGI: > 100 µM
UACC-257 melanoma
  TGI: > 100 µM
OVCAR-4 ovarian
  TGI: > 100 µM
CCRF-CEM leukemia
  TGI: > 100 µM
SK-OV-3 ovarian
  TGI: > 100 µM
OVCAR-5 ovarian
  TGI: > 100 µM
SF-295 CNS
  TGI: > 100 µM
K-562 leukemia
  TGI: > 100 µM
HCC-2998 colon
  TGI: > 100 µM
UO-31 renal
  TGI: > 100 µM
M14 melanoma
  TGI: > 100 µM
SW-620 colon
  TGI: > 100 µM
MOLT-4 leukemia
  TGI: > 100 µM
CAKI-1 renal
  TGI: > 100 µM
SNB-19 CNS
  TGI: > 100 µM
SK-MEL-5 melanoma
  TGI: > 100 µM
OVCAR-3 ovarian
  TGI: > 100 µM
MCF7 breast
  TGI: > 100 µM
RXF 393 renal
  TGI: > 100 µM
EKVX NSCLC
  TGI: > 100 µM
HCT-15 colon
  TGI: > 100 µM
OVCAR-8 ovarian
  TGI: > 100 µM
MALME-3M melanoma
  TGI: > 100 µM

## COC(=O)/C=C1/OC(c2ccccc2)=C(C)C1=O
LOX IMVI melanoma
  TGI: 2.72 µM
KM12 colon
  TGI: 27.1 µM
TK-10 renal
  TGI: 29.1 µM
786-0 renal
  TGI: 22.3 µM
SF-268 CNS
  TGI: 35.5 µM
SF-539 CNS
  TGI: 32.2 µM
SK-MEL-28 melanoma
  TGI: 31.1 µM
MDA-MB-231 breast
  TGI: 15.7 µM
HCT-116 colon
  TGI: 15.4 µM
ACHN renal
  TGI: 25.7 µM
SNB-75 CNS
  TGI: 43 µM
BT-549 breast
  TGI: 8.45 µM
T-47D breast
  TGI: 42.7 µM
SR leukemia
  TGI: 7.09 µM
U251 CNS
  TGI: 27.1 µM
HOP-92 NSCLC
  TGI: 26.2 µM
HOP-62 NSCLC
  TGI: 31.4 µM
MDA-MB-435
  TGI: 27.5 µM
MDA-N
  TGI: 5.71 µM
IGROV1 ovarian
  TGI: 28.4 µM
NCI-H522 lung
  TGI: 57.5 µM
HT29 colon
  TGI: 4.79 µM
DU-145 prostate
  TGI: 33.6 µM
A498 renal
  TGI: 32.8 µM
RPMI-8226 leukemia
  TGI: 5.65 µM
HS 578T breast
  TGI: 83.9 µM
NCI-H23 lung
  TGI: 43.6 µM
NCI-H460 lung
  TGI: 39.2 µM
COLO 205 colon
  TGI: 31.3 µM
NCI/ADR-RES ovarian
  TGI: 65.5 µM
NCI-H226 lung
  TGI: 38.6 µM
CCRF-CEM leukemia
  TGI: > 100 µM
SK-OV-3 ovarian
  TGI: 22.6 µM
OVCAR-5 ovarian
  TGI: 30.6 µM
SF-295 CNS
  TGI: 26.1 µM
K-562 leukemia
  TGI: 15 µM
HCC-2998 colon
  TGI: 30.2 µM
UO-31 renal
  TGI: 26.7 µM
M14 melanoma
  TGI: 24.4 µM
SW-620 colon
  TGI: 5.58 µM
MOLT-4 leukemia
  TGI: > 100 µM
HL-60(TB) leukemia
  TGI: 4.97 µM
CAKI-1 renal
  TGI: 14.8 µM
SNB-19 CNS
  TGI: 30.5 µM
UACC-62 melanoma
  TGI: 11.5 µM
SK-MEL-5 melanoma
  TGI: 34.2 µM
OVCAR-3 ovarian
  TGI: 41.9 µM
MCF7 breast
  TGI: 16.6 µM
RXF 393 renal
  TGI: 22.5 µM
EKVX NSCLC
  TGI: 32 µM
HCT-15 colon
  TGI: 17 µM
OVCAR-8 ovarian
  TGI: 81.6 µM
MALME-3M melanoma
  TGI: 26.7 µM
